From US20210045385A1, “PYRIDAZINONE-SUBSTITUTED KETOXIMES AS HERBICIDES” (FMC Corporation, priority 2018, published 2021)

Legend:
Type in all cases: in vivo
[1] = tested on: barnyardgrass (Echinochloa crus-galli); assay: Test A preemergence, visual plant response rating; conditions: for Barnyardgrass plant response rating: 125 g ai/ha, preemergence, 0 to 100 scale, 0 no effect, 100 complete control; for Barnyardgrass plant response rating (0 to 100 scale): 500 g ai/ha Preemergence, approx. 10 days
Outline: (§1)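 Ratings 0–100 (100 = complete control), visual, vs untreated controls at ~10 days. Application pre- or postemergence; solvent mixture with surfactant; loam/sand medium.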

[2] = tested on: foxtail, giant (giant foxtail, Setaria faberii); assay: Test A preemergence, visual plant response rating; conditions: for Foxtail, Giant plant response rating: 125 g ai/ha, preemergence, 0 to 100 scale, 0 no effect, 100 complete control; for Foxtail, Giant plant response rating (0 to 100 scale): 500 g ai/ha Preemergence, approx. 10 days
Outline: as §1

[3] = tested on: kochia (Kochia scoparia); assay: Test A preemergence, visual plant response rating; conditions: for Kochia plant response rating: 125 g ai/ha, preemergence, 0 to 100 scale, 0 no effect, 100 complete control; for Kochia plant response rating (0 to 100 scale): 500 g ai/ha Preemergence, approx. 10 days
Outline: as §1

[4] = tested on: pigweed (Amaranthus retroflexus); assay: Test A preemergence, visual plant response rating; conditions: for Pigweed plant response rating: 125 g ai/ha, preemergence, 0 to 100 scale, 0 no effect, 100 complete control; for Pigweed plant response rating (0 to 100 scale): 500 g ai/ha Preemergence, approx. 10 days
Outline: as §1

[5] = tested on: Italian ryegrass (Lolium multiflorum); assay: Test A preemergence, visual plant response rating; conditions: for Ryegrass, Italian plant response rating: 125 g ai/ha, preemergence, 0 to 100 scale, 0 no effect, 100 complete control; for Ryegrass, Italian plant response rating (0 to 100 scale): 500 g ai/ha Preemergence, approx. 10 days
Outline: as §1

[6] = tested on: ragweed (common ragweed, Ambrosia elatior); assay: Test A preemergence, visual plant response rating; conditions: for Ragweed plant response rating: 125 g ai/ha, preemergence, 0 to 100 scale, 0 no effect, 100 complete control; for Ragweed plant response rating (0 to 100 scale): 500 g ai/ha Preemergence, approx. 10 days
Outline: as §1

[7] = tested on: rice (Oryza sativa); assay: Test B flooded paddy test, visual plant response rating; conditions: 250 g ai/ha, Flood, applied to paddy water, 2-leaf stage, evaluated after 13 to 15 days
Outline: (§2)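 Visual scores compare treated plants with controls after 13 to 15 days of greenhouse growth. Treatment was made into paddy water standing 3 cm above the soil, with plants at the 2-leaf stage and flooding maintained throughout.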

[8] = tested on: sedge, umbrella (small-flower umbrella sedge, Cyperus difformis); assay: as above; conditions: 250 g ai/ha, Flood, applied to paddy water, 2-leaf stage, evaluated after 13 to 15 days
Outline: as §2

[9] = tested on: barnyardgrass (Echinochloa crus-galli); assay: as above; conditions: 250 g ai/ha, Flood, applied to paddy water, 2-leaf stage, evaluated after 13 to 15 days
Outline: as §2

[10] = tested on: ducksalad (Heteranhera limosa); assay: as above; conditions: 250 g ai/ha, Flood, applied to paddy water, 2-leaf stage, evaluated after 13 to 15 days
Outline: as §2

[11] = tested on: galium (catchweed bedstraw, Galium aparine); assay: Test A postemergence, visual plant response rating; conditions: for Galium plant response rating (0 to 100 scale): 500 g ai/ha, postemergence, 0 is no effect, 100 is complete control; for Galium plant response rating: Postemergence, 125 g ai/ha, 0 to 100 scale (0 no effect, 100 complete control)
Outline: as §1

[12] = tested on: barnyardgrass (Echinochloa crus-galli); assay: Test A postemergence, visual plant response rating; conditions: for Barnyardgrass plant response rating (0 to 100 scale): 500 g ai/ha, postemergence, 0 is no effect, 100 is complete control; for Barnyardgrass plant response rating: Postemergence, 125 g ai/ha, 0 to 100 scale (0 no effect, 100 complete control)
Outline: as §1

[13] = tested on: blackgrass (Alopecurus myosuroides); assay: Test A postemergence, visual plant response rating; conditions: for Blackgrass plant response rating (0 to 100 scale): 500 g ai/ha, postemergence, 0 is no effect, 100 is complete control; for Blackgrass plant response rating: Postemergence, 125 g ai/ha, 0 to 100 scale (0 no effect, 100 complete control)
Outline: as §1

[14] = tested on: corn (Zea mays); assay: Test A postemergence, visual plant response rating; conditions: for Corn plant response rating (0 to 100 scale): 500 g ai/ha, postemergence, 0 is no effect, 100 is complete control; for Corn plant response rating: Postemergence, 125 g ai/ha, 0 to 100 scale (0 no effect, 100 complete control)
Outline: as §1

[15] = tested on: foxtail, giant (giant foxtail, Setaria faberii); assay: Test A postemergence, visual plant response rating; conditions: for Foxtail, Giant plant response rating (0 to 100 scale): 500 g ai/ha, postemergence, 0 is no effect, 100 is complete control; for Foxtail, Giant plant response rating: Postemergence, 125 g ai/ha, 0 to 100 scale (0 no effect, 100 complete control)
Outline: as §1

[16] = tested on: wheat (Triticum aestivum); assay: Test A postemergence, visual plant response rating; conditions: for Wheat plant response rating: 0 to 100 scale (0 no effect, 100 complete control)
Outline: as §1

[17] = tested on: kochia (Kochia scoparia); assay: Test A postemergence, visual plant response rating; conditions: for Kochia plant response rating (0 to 100 scale): 500 g ai/ha, postemergence, 0 is no effect, 100 is complete control; for Kochia plant response rating: Postemergence, 125 g ai/ha, 0 to 100 scale (0 no effect, 100 complete control)
Outline: as §1

[18] = tested on: pigweed (Amaranthus retroflexus); assay: Test A postemergence, visual plant response rating; conditions: for Pigweed plant response rating (0 to 100 scale): 500 g ai/ha, postemergence, 0 is no effect, 100 is complete control; for Pigweed plant response rating: Postemergence, 125 g ai/ha, 0 to 100 scale (0 no effect, 100 complete control)
Outline: as §1

[19] = tested on: Italian ryegrass (Lolium multiflorum); assay: Test A postemergence, visual plant response rating; conditions: for Ryegrass, Italian plant response rating: 125 g ai/ha, 0 to 100 scale (0 no effect, 100 complete control)
Outline: as §1

[20] = tested on: ragweed (common ragweed, Ambrosia elatior); assay: Test A postemergence, visual plant response rating; conditions: for Ragweed plant response rating (0 to 100 scale): 500 g ai/ha, postemergence, 0 is no effect, 100 is complete control; for Ragweed plant response rating: Postemergence, 125 g ai/ha, 0 to 100 scale (0 no effect, 100 complete control)
Outline: as §1

[21] = 500 g ai/ha, postemergence, 0 is no effect, 100 is complete control

Row | SMILES | Barnyardgrass plant response rating [1] | Barnyardgrass plant response rating (0 to 100 scale) [1] | Foxtail, Giant plant response rating [2] | Foxtail, Giant plant response rating (0 to 100 scale) [2] | Kochia plant response rating [3] | Kochia plant response rating (0 to 100 scale) [3] | Pigweed plant response rating [4] | Pigweed plant response rating (0 to 100 scale) [4] | Ryegrass, Italian plant response rating [5] | Ryegrass, Italian plant response rating (0 to 100 scale) [5] | Ragweed plant response rating [6] | Ragweed plant response rating (0 to 100 scale) [6] | Plant response rating, Rice (0 to 100 scale, 0 is no effect, 100 is complete control) [7] | Plant response rating, Sedge, Umbrella (0 to 100 scale, 0 is no effect, 100 is complete control) [8] | Plant response rating, Barnyardgrass (0 to 100 scale, 0 is no effect, 100 is complete control) [9] | Plant response rating, Ducksalad (0 to 100 scale, 0 is no effect, 100 is complete control) [10] | Galium plant response rating (0 to 100 scale) [11] | Galium plant response rating [11] | Barnyardgrass plant response rating (0 to 100 scale) [12] | Barnyardgrass plant response rating [12] | also measured
1 | CCO/N=C(/c1c(O)c(Cl)nn(C)c1=O)c1cccc2ccccc12 [Compound 147] | 50 | 60 | 50 | 80 | 100 | 100 | 60 | 100 | 0 | 0 | 90 | 100 | 0 | 0 | 0 | 0 | 90 | 90 | 60 | 20 | Blackgrass plant response rating (0 to 100 scale) [13]: 60; Blackgrass plant response rating [13]: 30; Corn plant response rating (0 to 100 scale) [14]: 30; Corn plant response rating [14]: 0; Foxtail, Giant plant response rating (0 to 100 scale) [15]: 70; Foxtail, Giant plant response rating [15]: 30; Wheat plant response rating ([16]; Postemergence, 500 g ai/ha): 0; Wheat plant response rating (0 to 100 scale) ([16]; Postemergence, approx. 10 days): 0; Kochia plant response rating (0 to 100 scale) [17]: 90; Kochia plant response rating [17]: 40; Pigweed plant response rating (0 to 100 scale) [18]: 90; Pigweed plant response rating [18]: 40; Ryegrass, Italian plant response rating (0 to 100 scale) [19, 21]: 0; Ryegrass, Italian plant response rating (0 to 100 scale) ([19]; Postemergence, rate not given, approx. 10 days): 0; Ragweed plant response rating (0 to 100 scale) [20]: 90; Ragweed plant response rating [20]: 100
2 | CO/N=C(/c1ccccc1F)c1c(O)c(C)nn(C)c1=O [Compound 62] | 0 | 0 | 0 | 0 | 0 | 0 | 0 | 0 | 10 | 40 | 0 | 30 | 0 | 0 | 0 | 0 | 70 | 20 | 0 | 0 | Blackgrass plant response rating (0 to 100 scale) [13]: 10; Blackgrass plant response rating [13]: 10; Corn plant response rating (0 to 100 scale) [14]: 0; Corn plant response rating [14]: 0; Foxtail, Giant plant response rating (0 to 100 scale) [15]: 10; Foxtail, Giant plant response rating [15]: 0; Wheat plant response rating (0 to 100 scale) [16, 21]: 0; Wheat plant response rating ([16]; Postemergence, 125 g ai/ha): 0; Kochia plant response rating (0 to 100 scale) [17]: 20; Kochia plant response rating [17]: 0; Pigweed plant response rating (0 to 100 scale) [18]: 30; Pigweed plant response rating [18]: 10; Ryegrass, Italian plant response rating (0 to 100 scale) [19, 21]: 20; Ryegrass, Italian plant response rating ([19]; Postemergence): 0; Ragweed plant response rating (0 to 100 scale) [20]: 40; Ragweed plant response rating [20]: 20
3 | C=CCO/N=C(/c1c(O)c(C)nn(C)c1=O)c1ccc(F)c2ccccc12 [Compound 87] | 70 | 90 | 90 | 100 | 0 | 30 | 30 | 100 | 90 | 100 | 90 | 90 | 0 | 0 | 0 | 0 | 100 | 80 | 80 | 60 | Blackgrass plant response rating (0 to 100 scale) [13]: 90; Blackgrass plant response rating [13]: 80; Corn plant response rating (0 to 100 scale) [14]: 30; Corn plant response rating [14]: 0; Foxtail, Giant plant response rating (0 to 100 scale) [15]: 80; Foxtail, Giant plant response rating [15]: 70; Wheat plant response rating (0 to 100 scale) [16, 21]: 60; Wheat plant response rating ([16]; Postemergence, 125 g ai/ha): 40; Kochia plant response rating (0 to 100 scale) [17]: 70; Kochia plant response rating [17]: 40; Pigweed plant response rating (0 to 100 scale) [18]: 90; Pigweed plant response rating [18]: 70; Ryegrass, Italian plant response rating (0 to 100 scale) [19, 21]: 100; Ryegrass, Italian plant response rating ([19]; Postemergence): 80; Ragweed plant response rating (0 to 100 scale) [20]: 90; Ragweed plant response rating [20]: 100
